# Like-named read-outs stand apart in the source and are kept apart here.
# Tests used:
# [1] = in presence of the formulation based on benzoyl peroxide, cited from earlier work; for Retinoid degraded: calculated
# [2] = Chemical stability: assay of adapalene by internal calibration in HPLC; assay type: physicochemical; settings: composition of Example 2 a); AT; T 3 months
# From the text: Assay of the active by internal calibration in HPLC.
# At the starting time (T0) the composition is considered to contain 100% of adapalene. Concentration of adapalene measured in % relative to T0: […]
# [3] = Chemical stability: assay of benzoyl peroxide by internal calibration in HPLC; assay type: physicochemical; settings: composition of Example 2 a)
# From the text: Benzoyl Peroxide: Assay of the active by internal calibration in HPLC. At the starting time (T0) the composition is considered to contain 100% of benzoyl peroxide. Concentration of benzoyl peroxide measured in % relative to T0: […]
# [4] = in PEG 400 and ethanol; cited from earlier work
# [5] = cited from earlier work; for Degradation time: 40° C.
structure (smiles),measurement,setting,value
"COc1ccc(-c2ccc3cc(C(=O)O)ccc3c2)cc1C12CC3CC(CC(C3)C1)C2 [Adapalene, 6-(3-(1-adamantyl)-4-methoxyphenyl)-2-naphthoic acid]",Degradation of the retinoid,[1]; over 24 hours,no degradation
same,Concentration of adapalene measured in % relative to T0,[2],97.7%
"O=C(OOC(=O)c1ccccc1)c1ccccc1 [Benzoyl Peroxide, benzoyl peroxide]",Concentration of benzoyl peroxide measured in % relative to T0,"[3]; 40° C., T 1 month",96.3%
same,Concentration of benzoyl peroxide measured in % relative to T0,"[3]; 40° C., T 2 months",81.6%
same,Concentration of benzoyl peroxide measured in % relative to T0,"[3]; 40° C., T 3 months",88.7%
same,Concentration of benzoyl peroxide measured in % relative to T0,"[3]; AT, T 0",99.2%
same,Concentration of benzoyl peroxide measured in % relative to T0,"[3]; AT, T 3 months",94.8%
same,Solubility,[4],particularly soluble
same,Degradation time,[5]; in solution in PEG 400 (0.5 mg/g),1.4 days
same,Degradation time,[5]; in solution in ethanol,29 days
same,Degradation time,[5]; in solution in propylene glycol,53 days
same,Degradation in suspension (dispersed form),"[5]; in water and propylene glycol, kept for 90 days",not degraded
CC1=C(/C=C/C(C)=C/C=C/C(C)=C/C(=O)O)C(C)(C)CCC1 [tretinoin],Retinoid degraded,[1]; in 2 hours,50%
same,Retinoid degraded,[1]; in 24 hours,95%
